The values below come from patent US9394331B2, “2′-spiro-nucleosides and derivatives thereof useful for treating hepatitis C virus and dengue virus infections” (priority 2010, dated 2016).

A short description of data set [1]: Cytotoxicity reported with the dengue assay. The note with it: Table 6; cell line not stated. The data set is classed as cell-based.
Data set [2] has as its system Huh7, HepG2, BxPC3, or CEM cells. The data set can be described thus: Cell cytotoxicity assay (MTS). The data set is classed as cell-based. The note with it: Table 3; cell line not stated. On the procedure:
(§1) Cell cytotoxicity assays. Each compound (serially diluted from 100 μM) was added to Huh7 (2×10^3 cells/well), HepG2 (2×10^3 cells/well), BxPC3 (2×10^3 cells/well), or CEM (5×10^3 cells/well) cells and allowed to incubate for 8 days at 37° C. A medium only control was used to determine the minimum absorbance value […]. At the end of the growth period, MTS dye from the CellTiter 96 Aqueous One Solution Cell Proliferation Assay kit (Promega) was added to each well and the plate was incubated for an additional 2 hours. The absorbance at 490 nm was read with a Victor3 plate reader (Perkin Elmer) using the medium only control wells as blanks. The 50% inhibition value (CC50) was determined by comparing the absorbance in wells containing cells and test compound to untreated cell control wells.

Data set [3] relates to Dengue 2 strain New Guinea C. Put plainly: Dengue CPE assay. The data set is classed as cell-based, Dengue virus 2. Conditions: Table 6, BHK-21 cells, 3 days, 50% cells surviving, read-out: EC50, activity against dengue virus. As for the experimental part:
Dengue CPE Assay. To measure cytopathic effect of Dengue virus 2, BHK-21 ([…], CCL-10 ATCC Manassas, Va.) cells were seeded at a density of 20,000 cells/well in a 96-well black/clear bottom plates (Becton Dickinson, Franklin Lakes, N.J.) one day prior to start of the assay and allowed to attach overnight in EMEM (ATCC Manassas, Va.) +10% FBS (Invitrogen, Carlsbad, Calif.) at 37° C. in a humidified 5% CO2 atmosphere. The next day, the medium was removed and the cells were infected with Dengue 2 strain New Guinea C (VR-1584, ATCC Manassas, Va.) at an MOI of 0.08 pfu/cell for two hours in 50 μL EMEM+2% FBS. For both the single point and dose response assays, compounds (2× concentration) were diluted in EMEM+2% FBS and 50 μL was added to infected cells without removing virus. Cells were incubated for 3 days at 37° C. in a humidified 5% CO2 atmosphere. The medium was aspirated and 50 μL of CellTiter-Glo (Promega, Madison, Wis.) was added to each well and read for 0.1 seconds on a Perkin Elmer Victor3 (Waltham, Mass.) plate reader. Percent survival was determined by subtracting the average value of infected control wells and normalizing to the non-infected wells. The effective concentration was calculated from the dose response data by forecasting 50% cells surviving with drug treatment.

Another data set concerns HCV replicon. Put plainly: HCV replicon assay (Clone A cells and ET-lunet cells, HCV RNA by real time PCR). It counts as cell-based, hepatitis C virus. Conditions: Table 3, HCV 1b replicon; for pEC50: read-out: EC50, anti-HCV 1b activity; for EC90: read-out: EC90, anti-HCV 1b activity. On the procedure:
HCV replicon assay. HCV replicon assays using Clone A cells and ET-lunet cells were performed as described previously. L. J. Stuyver et al. Antimicrob. Agents Chemother. 2004, 48, 651-654. Briefly, Clone A cells and ET-lunet cells were seeded at a density of 1500 and 3000 cells per well in a 96-well plate, respectively. Test compounds serially diluted in culture medium without G418 were added to cells. Plates were incubated at 37° C. in a 5% CO2 atmosphere for 4 days. Inhibition of HCV RNA replication was determined by quantitative real time PCR. See, e.g., L. J. Stuyver et al. Antiviral Chem. Chemother. 2006, 17, 79-87.
To express the antiviral effectiveness of a compound, the threshold RT-PCR cycle of the test compound was subtracted from the average threshold RT-PCR cycle of the no-drug control (ΔCtHCV). A ΔCt of 3.3 equals a 1-log 10 reduction (equal to the 90% effective concentration [EC90]) in replicon RNA levels. The cytotoxicity of the test compound could also be expressed by calculating the ΔCtrRNA values. The ΔΔCt specificity parameter could then be introduced (ΔCtHCV-ΔCtrRNA), in which the levels of HCV RNA are normalized for the rRNA levels and calibrated against the no-drug control.
(A replicon is a self-replicating genome or part of one, used to study replication in cells.)

The nature of data set [4]: Cell cytotoxicity assay (MTS). The data set is classed as cell-based. Conditions: human; Table 3; cell line not stated; read-out: CC50. On the procedure:
as §1

pEC50: −log10 of the molar value. Like-named read-outs stand apart in the source and are kept apart here.

Turning to `COc1nc(N)nc2c1ncn2C1OC(COP(=O)(N[C@@H](C)C(=O)OC(C)C)Oc2ccccc2)[C@@H](O)[C@]12CCO2` (stereo partly drawn) [compound 119], the CC50 in data set [1] and in data set [2] was over 20 µM throughout. Further, the pEC50 – broadly, the EC50 on a negative log10 scale, so that one unit is a factor of ten – is 5.06 in data set [3] (Dengue virus, BHK-21, 72 h) and 5.34 in the data set on HCV replicon. In addition, the EC90 (in general, the concentration at which the effect reaches the 90% level) with HCV replicon was over 20 µM.

On to `COc1nc(N)nc2c1ncn2C1OC(COP(=O)(N[C@@H](C)C(=O)OCC(C)(C)C)Oc2ccccc2)[C@@H](O)[C@]12CCO2` (stereo partly drawn) [compound 120], for which the CC50 (in general, the concentration at which the toxic effect on the cells reaches its halfway point) in data set [1] is over 20 µM. Besides, the CC50 at 8 days in data set [4] is over 20 µM. In addition, the pEC50 in data set [3] (Dengue virus, BHK-21, 72 h) was 5.73. Further, in the data set on HCV replicon, the pEC50 is 6.41 and the EC90 turned out to be 0.676 µM.

On to `COc1nc(N)nc2c1ncn2C1OC(COP(=O)(N[C@@H](C)C(=O)OCC(C)(C)C)Oc2ccccc2)[C@@H](O)[C@]12CCO2` (stereo partly drawn) [compound 121], for which the CC50 in data set [1] and in data set [2] was over 20 µM each time. The pEC50 is 5.65 in data set [3] and 5.03 with HCV replicon. For the same compound, the EC90 in the data set on HCV replicon was 18.5 µM.

With `CCOC(=O)[C@H](C)NP(=O)(OCC1OC(n2cnc3c(OC)nc(N)nc32)[C@@]2(CCO2)[C@@H]1O)Oc1ccccc1` (stereo partly drawn) [compound 122], in data set [1], the CC50 was over 20 µM. Further, the CC50 at 8 days in data set [4] is over 20 µM. Further, the pEC50 in data set [3] (Dengue virus, BHK-21, 72 h) was 5.23. In the data set on HCV replicon (Hepatitis C virus), the pEC50 is 6.07 and the EC90 was found to be 3 µM.

As to `COc1nc(N)nc2c1ncn2C1OC(COP(=O)(N[C@@H](C)C(=O)OCC(C)(C)C)Oc2cccc3ccccc23)[C@@H](O)[C@]12CCO2` (stereo partly drawn) [compound 123], the CC50 in data set [1] is over 20 µM. In data set [4], the CC50 at 8 days was over 20 µM. For the same compound, the pEC50 in data set [3] (Dengue virus, BHK-21, 72 h) is 5.76. Moreover, in the data set on HCV replicon (Hepatitis C virus), the pEC50 is 6.51 and the EC90 is 0.853 µM.

`COc1nc(N)nc2c1ncn2C1OC(COP(=O)(N[C@@H](C)C(=O)OCC(C)C)Oc2ccccc2)[C@@H](O)[C@]12CCO2` (stereo partly drawn) [compound 124]: the 50% cytotoxic concentration (CC50) in data set [1] was over 20 µM. The CC50 at 8 days in data set [4] was over 20 µM. For the same compound, the pEC50 in data set [3] (Dengue virus, BHK-21, 72 h) was 5.66; in the data set on HCV replicon it was 6.25. Moreover, in the data set on HCV replicon, the EC90 is 1.81 µM.

Turning to `COc1nc(N)nc2c1ncn2C1OC(COP(=O)(N[C@@H](C)C(=O)OCC(C)C)Oc2ccccc2)[C@@H](O)[C@]12CCO2` (stereo partly drawn) [compound 125], the CC50 in data set [1] and in data set [2] was over 20 µM in each case. The pEC50 in data set [3] was 5.70; in the data set on HCV replicon, 5.35. Further, the EC90 with HCV replicon was 8.45 µM.

As to `CCCCOC(=O)[C@H](C)NP(=O)(OCC1OC(n2cnc3c(OC)nc(N)nc32)[C@@]2(CCO2)[C@@H]1O)Oc1ccccc1` (stereo partly drawn) [compound 126], in data set [1], the CC50 was over 20 µM. In data set [4], the half-maximal cytotoxic concentration (CC50) at 8 days was over 20 µM. Further, the pEC50 in data set [3] (Dengue virus, BHK-21, 72 h) was 5.63. For the same compound, in the data set on HCV replicon, the pEC50 was 6.56 and the EC90 turned out to be 0.7 µM.

Turning to `CCCCOC(=O)[C@H](C)NP(=O)(OCC1OC(n2cnc3c(OC)nc(N)nc32)[C@@]2(CCO2)[C@@H]1O)Oc1ccccc1` (stereo partly drawn) [compound 127], the CC50 in data set [1] and in data set [2] was over 20 µM in each case. For the same compound, the pEC50 was 5.79 in data set [3] and 5.51 with HCV replicon. The EC90 in the data set on HCV replicon came out at 6.45 µM.

`COc1nc(N)nc2c1ncn2C1OC(COP(=O)(N[C@@H](C)C(=O)OC2CCCC2)Oc2ccccc2)[C@@H](O)[C@]12CCO2` (stereo partly drawn) [compound 128] yielded a CC50 in data set [1] of over 20 µM. Moreover, in data set [4], the CC50 at 8 days is over 20 µM. Moreover, the pEC50 in data set [3] (Dengue virus, BHK-21, 72 h) was 5.55. For the same compound, in the data set with HCV replicon (Hepatitis C virus), the pEC50 is 6.35 and the EC90 came out at 1.09 µM.

As to `COc1nc(N)nc2c1ncn2C1OC(COP(=O)(N[C@@H](C)C(=O)OC2CCCC2)Oc2ccccc2)[C@@H](O)[C@]12CCO2` (stereo partly drawn) [compound 129], the CC50 in data set [1] and in data set [2] was over 20 µM throughout. Moreover, the negative-log EC50 (pEC50) in data set [3] is 5.63; in the data set with HCV replicon it was 6.17. Also, the EC90 with HCV replicon was found to be 1.97 µM.

On to `COc1nc(N)nc2c1ncn2C1OC(COP(=O)(N[C@@H](C)C(=O)OCc2ccccc2)Oc2ccccc2)[C@@H](O)[C@]12CCO2` (stereo partly drawn) [compound 130], for which the CC50 in data set [1] is over 20 µM. In data set [4], the CC50 at 8 days is over 20 µM. For the same compound, the negative logarithm of the EC50 (pEC50) in data set [3] was 5.42. In the data set on HCV replicon (Hepatitis C virus), the pEC50 is 5.06 and the EC90 was 15.1 µM.
